Measurements: article PMC3401907, “Cellular Uptakes, Biostabilities and Anti-miR-210 Activities of Chiral Arginine-PNAs in Leukaemic K562 Cells” (Chembiochem, 2012)

Columns and labels:
[1] = system: DNA1 (full-match antiparallel DNA); test: Melting temperature (Tm) of PNA:DNA duplexes, full-match DNA; type: binding; conditions: UV absorbance at 260 nm, strand concentration 5 μM; for Tm, DNA1 in urea (5 M): PBS buffer pH 7 (NaCl 100 mM, NaH2PO4 10 mM, EDTA 0.1 mM) with urea 5 M; for Tm, DNA1 in water: PBS buffer pH 7, no urea, 18 to 90 °C at 1 °C/min
Experimental: (§1) Measurements of Tm values: The Tm values were determined with a Lambda Bio 20 spectrophotometer and a Peltier PTP6 temperature programmer. Thermal denaturation profiles were measured by monitoring the absorbance at 260 nm from 18 to 90 °C with a heating rate of 1 °C min^−1 and recording every 0.1 °C. […]

[2] = system: RNA1 (target region of miR-210); test: Melting temperature (Tm) of PNA:RNA duplexes, full-match RNA; type: binding; conditions: UV absorbance at 260 nm, strand concentration 5 μM; for Tm, RNA1 in water: PBS buffer pH 7, no urea; for Tm, RNA1 in urea (5 M): PBS buffer pH 7 with urea 5 M
Experimental: as §1

K562 cells [3] = conditions: cited from earlier work
Experimental: In order to determine the distributions of PNAs within target cells, analysis was performed with a fluorescence microscope. […] Low uptake was also found by fluorescence microscopy with PNA1.[25]

miR-210 [4] = conditions: cited from earlier work; for anti-miR activity: K562 cells, previously demonstrated
Excerpt: (§2) The first step necessary to achieve anti-miR activity in cells is effective cellular uptake.

miR-210 [5] = test: miR-210 content by RT-qPCR analysis; type: cell-based, human; conditions: K562 cells, 24 h; for inhibition of miR-210 bioavailability (miR-210 content): PNA 2 μM, Figure 5 A and B, relative to pept-1
Experimental: K562 cells were treated with 15 nM mithramycin in the presence of a PNA (2 μM), and after 24 h RNA was isolated and miR-210 was assayed by RT-qPCR analysis. This type of test has been used to evaluate miR content in many studies because it allows the free-miR content to be evaluated. […] Figure 5 A and B reports the obtained data, showing that inhibition of miR bioavailability was induced both with the modified PNA and with the peptide-conjugated one, whereas in the case of PNA1 it was unchanged. […] This might be related to inhibition of pre-miR maturation or to unavailability of the miR to the qRT-PCR analysis due to strong complexation with the PNA. In either case the bioavailability of the miR for targeting other genes should be reduced.
Transfection procedures: Anti-miR-210 PNAs were directly added to the cellular medium to reach the indicated final concentrations. K562 cells were cultured in 24-well plates starting from the initial density of 30 000 cells per mL. MTH was administrated together with anti-miR PNAs.
RNA extraction: Cells were isolated by centrifugation at 1500 rpm for 10 min at 4 °C, washed in PBS and lysed in Tri-reagent (Sigma–Aldrich) according to the manufacturer's instructions. The isolated RNA was washed once with cold ethanol (75 %), dried and dissolved in ultrapure nuclease-free water.
Real-time quantitative PCR: For microRNA quantification with real-time RT-PCR reagents, the primers and probes were obtained from Applied Biosystems. Reverse transcriptase (RT) reactions were performed with a TaqMan MicroRNA Reverse Transcription Kit (Applied Biosystems) for hsa-miR-210, hsa-miR-10a, hsa-miR-93, hsa-miR-99b, hsa-miR-126, hsa-miR-149, hsa-miR-424, hsa-miR-483-5p, hsa-miR-625, hsa-let-7c and the iQTM5 real-time PCR System Instrument (Bio-Rad). Relative expression was calculated by the comparative cycle threshold method and U6 microRNA was used as reference gene to normalise all RNA samples, because it is constant in the assayed samples by miR-profiling and quantitative RT-PCR analysis as previously reported.[25]

γ-globin gene expression = γ-globin gene expression by RT-qPCR; type: cell-based, human; conditions: mithramycin-treated (15 nM) K562 cells, PNA 2 μM single administration, 72 h, n=3
Experimental: The strong inhibition of miR-210 by PNA2 and PNA4 might thus result in appreciable reduction of γ-globin gene expression.
Figure 6 A) Effects of pept-1, PNA1, PNA2 and PNA4 molecules (each 2 μM) on γ-globin content in K562 cell cultures for 72 h with MTH (15 nM). Data are reported as arbitrary units relative to cells treated with pept-1 and MTH (average±SD, n=3, *: p<0.05, **: p<0.01). B), C) Effects of treatment (72 h) with pept-1, PNA1, PNA2 and PNA4 molecules on K562 cells induced to erythroid differentiation by MTH (15 nM): B) summary of three independent experiments, C) a representative experiment showing staining of the cells with benzidine.
The nucleotide sequences used for real-time qPCR analysis of γ-globin mRNAs were γ-globin forward primer (5′-TGGCAA GAAGGT GCTGAC TTC-3′), γ-globin reverse primer (5′-TCACTC AGCTGG GCAAAG G-3′) and γ-globin probe (5′-FAM-TGGGAG ATGCCA TAAAGC ACCTGG-TAMRA-3′).[25] The relative expression was calculated by the comparative cycle threshold method with endogenous control human 18S rRNA as reference genes.[25]

[6] = system: RNA2 (mismatched RNA, G→U); test: Melting temperature (Tm) of PNA:RNA duplexes, single-mismatch RNA; type: binding; conditions: UV absorbance at 260 nm, PBS buffer pH 7 with urea 5 M, strand concentration 5 μM
Excerpt: (§3) Sequence selectivity is a very important issue in view of the use of PNAs in cellular systems, because partial hybridisation might occur with other unrelated miRNAs or, most importantly, with mRNA targets. We analysed the sequence selectivities of our PNAs with stricter models (DNA2 and RNA2) involving single base mismatches (G→T or G→U) located in the middle of the target sequences. In each case the sequence selectivity was confirmed by significant lowering of the melting temperature. The ranges of ΔTm due to the presence of these single mismatches were 8–21 °C for DNA, with the maximum drop in the case of PNA4 and the minimum observed in that of PNA6. For the latter it should be considered that the mismatch was facing the last chiral monomer, preventing the cooperative effect observed in the case of 2D-modifed highly constrained PNA.[22]
(§4) Measurements of Tm values: The Tm values were determined with a Lambda Bio 20 spectrophotometer and a Peltier PTP6 temperature programmer. Thermal denaturation profiles were measured by monitoring the absorbance at 260 nm from 18 to 90 °C with a heating rate of 1 °C min^−1 and recording every 0.1 °C. Measurement conditions: [PNA]=[DNA] or [RNA]=5 μM in PBS buffer [pH 7.0, NaCl (100 mM), NaH2PO4⋅H2O (10 mM), EDTA (0.1 mM)] with urea (5 M).

[7] = system: DNA2 (mismatched DNA, G→T); test: Melting temperature (Tm) of PNA:DNA duplexes, single-mismatch DNA; type: binding; conditions: single mismatch; UV absorbance at 260 nm, PBS buffer pH 7 with urea 5 M, strand concentration 5 μM
Excerpt: as §3, §4

K562 cells [8] = test: Mithramycin-induced erythroid differentiation (benzidine-positive cells); type: cell-based, human; conditions: MTH 15 nM, PNA 2 μM, benzidine-positive cells after 5 days of induction, three independent experiments
Experimental: In order to evaluate effects on mithramycin-induced cellular differentiation, K562 cells were treated with MTH in the presence of pept-1, PNA1, PNA2 and PNA4 (each 2 μM). The proportions of benzidine-positive cells were determined after 5 days of induction.
Human cell lines and culture conditions: Human leukaemia K562 cells were cultured under humidified CO2 (5 %)/air in RPMI 1640 medium (Sigma) supplemented with foetal bovine serum (FBS, 10 %, Analitical de Mori, Milan, Italy), penicillin (50 units mL^−1) and streptomycin (50 μg mL^−1).[26] Mithramycin (MTH) was from Sigma. Stock solutions of MTH (100 μM) were stored at −20 °C in the dark and diluted immediately before use. Treatment of K562 cells with MTH was carried out by addition of the appropriate drug concentrations at the beginning of the cultures (cells were seeded at 30 000 mL^−1). The medium was not changed during the induction period. To determine antiproliferative activity, cell growth was studied by determining the cell number per mL with a Z1 Coulter Counter (Coulter Electronics, Hialeah, FL, USA). Erythroid differentiated K562 cells containing haemoglobin were detected by specific reaction with a benzidine/hydrogen peroxide solution as reported elsewhere.[26] The final concentration of benzidine was 0.2 % in glacial acetic acid (5 M) and H2O2 (10 %).

K562 cells [9] = conditions: previously demonstrated; cited from earlier work
Excerpt: as §2

H-CCGCTGTCACACGCACAG-NH2 [PNA1, unmodified achiral "naked" 18-mer PNA targeted against miR-210, reference compound]
Tm, DNA1 in urea (5 M) [1]: 70 °C
Tm, DNA1 in water [1]: 85 °C
Tm, RNA1 in water [2]: 88 °C
Tm, RNA1 in urea (5 M) [2]: 77 °C
uptake by fluorescence microscopy (K562 cells [3]): Low uptake
anti-miR activity (miR-210 [4]): no activity
inhibition of miR-210 bioavailability (miR-210 content) (miR-210 [5]): unchanged
effect on γ-globin gene expression (γ-globin gene expression): did not show appreciable effects
Tm, RNA2 in urea (5 M) [6]: 62 °C
Tm, DNA2 in urea (5 M) [7]: 58 °C

H-R8CCGCTGTCACACGCACAG-NH2 [PNA2, 18-mer anti-miR-210 PNA conjugated with octaarginine (R8) peptide, reference compound]
effect on MTH-induced erythroid differentiation (K562 cells [8]): able to inhibit erythroid differentiation
Tm, DNA1 in urea (5 M) [1]: 80 °C
Tm, DNA1 in water [1]: >90 °C
Tm, RNA1 in water [2]: >90 °C
Tm, RNA1 in urea (5 M) [2]: 88 °C
internalisation within K562 cells (K562 cells [9]): efficiently internalised
anti-miR activity (miR-210 [4]): pronounced anti-miR activity
selectivity of miR-210 inhibition versus other miRs (miR-210 [4]; previously found): inhibit miR-210 selectively
miR-210 inhibition upon treatment with mithramycin (miR-210 [5]; PNA 2 μM with MTH 15 nM, relative to pept-1 and MTH): best results
inhibition of miR-210 bioavailability (miR-210 content) (miR-210 [5]): Stronger inhibition
effect on γ-globin gene expression (γ-globin gene expression): inhibited γ-globin gene expression
Tm, RNA2 in urea (5 M) [6]: 73 °C
Tm, DNA2 in urea (5 M) [7]: 68 °C
